Earlier results on 24 compounds are cited in patent EP2691395B1, “PROCESSES FOR PREPARING TOFACITINIB SALTS” (ratiopharm GmbH, priority 2011, dated 2012).

The conditions of this series: acids listed as possible first acid.
As to `C=CCCCCCCCCC(=O)O` [undecylenic acid], the pKa result is on record as “about 4.9”.
Consider `O=C(O)/C=C\c1ccccc1` [cis-cinnamic acid], for which the pKa entry is recorded as “about 3.89”.
Turning to `CCCCCCCC/C=C\CCCCCCCC(=O)O` [oleic acid], the pKa entry is given as “about 4”.
For the compound `CCCCCCCCCCCC(=O)O` [lauric acid], the pKa entry was “about 4.9”.
Regarding `O=c1[nH]c(=O)c2[nH]c(=O)[nH]c2[nH]1` [uric acid], the pKa entry is given as “about 3.89”.
Take `CCCCCCCCCCCCCCCC(=O)O` [palmitic acid]: the pKa entry is “about 4.9”.
On to `CCCCC(=O)O` [pentanoic acid], for which the pKa entry is “about 4.84”.
`CC(=O)Nc1ccc(C(=O)O)cc1` [4-acetamidobenzoic acid]: the pKa entry is given as “about 4.3”.
Consider `CCCCCCCCCCCCCCCCCC(=O)O` [stearic acid], for which the pKa entry is on record as “about 4.9”.
Consider `O=C(O)CCO` [3-hydroxypropanoic acid], for which the pKa result is listed as “about 4.51”.
With `O=C(O)c1cc(=O)[nH]c(=O)[nH]1` [orotic acid], the pKa entry is listed as “about 5.85”.
On to `O=C(O)[C@H](O)[C@@H](O)[C@H](O)[C@H](O)CO` [D-gluconic acid], for which the pKa entry was “about 3.76”.
As to `O=C(O)O` [carbonic acid], the pKa result was “about 6.46”.
For `CC(CC(=O)O)C(=O)O` (stereo not drawn) [methylsuccinic acid], the pKa result is reported as “about 4.13”.
With `CC1(C(=O)O)CCC(C(=O)O)C1(C)C` (stereo not drawn) [(+)-camphoric acid], the pKa entry was “about 4.72”.
As to `CCCCCC(=O)O` [hexanoic or caproic acid], the pKa result is reported as “about 4.85”.
As to `O=C(O)CCCO` [4-hydroxybutanoic acid], the pKa result is listed as “about 4.72”.
In the case of `O=C(O)c1cccc(O)c1` [m-hydroxybenzoic acid], the pKa result was “about 4.06”.
As to `O=C(O)CNC(=O)c1ccccc1` [hippuric acid], the pKa result is given as “about 3.55”.
As to `O=C(O)Cc1ccccc1` [phenylacetic acid], the pKa entry is “about 4.28”.
Turning to `O=C(O)CCCC(=O)O` [glutaric acid], the pKa result is listed as “about 4.31”.
In the case of `O=C(O)c1ccc(O)cc1` [p-hydroxybenzoic acid], the pKa result is listed as “about 4.48”.
Take `CC(O)CC(=O)O` (stereo not drawn) [3-hydroxybutanoic acid]: the pKa result is “about 4.70”.
In the case of `CCCCCCCC(=O)O` [caprylic or octanoic acid], the pKa entry is “about 4.91”.
